In brackets after ≈: the same amount, converted by molar mass.
Legend:
Type in all cases: functional
Bacillus subtilis = test: Antibacterial activity against Bacillus subtilis by microtiter plate assay
[1] = test system: Mycolicibacterium smegmatis; test: Antibacterial activity against Mycobacterium smegmatis by microtiter plate assay
Staphylococcus aureus = test: Antibacterial activity against Staphylococcus aureus by microtiter plate assay
Candida albicans = test: […] activity against Candida albicans by microtiter plate assay

Structure (SMILES)	MIC (Bacillus subtilis)	MIC [1]	MIC (Staphylococcus aureus)	MIC (Candida albicans)
COc1c2ccccc2nc2occc12 [DICTAMNINE]	100 µg/mL (≈ 502 µM)	100 µg/mL (≈ 502 µM)	–	–
Cn1c2ccccc2c(=O)c2c(O)cc3c(c21)CC(C(C)(O)CCl)O3 (configuration not stated) [ISOGRAVACRIDONECHLORINE]	100 µg/mL (≈ 278 µM)	100 µg/mL (≈ 278 µM)	–	–
CC(O)CCCCc1ccc2c(c1)OCO2 (configuration not stated) [MOSKACHAN C]	100 µg/mL (≈ 450 µM)	100 µg/mL (≈ 450 µM)	–	–
COc1ccc2nc3occc3c(OC)c2c1 [PTELEINE]	50 µg/mL (≈ 218 µM)	50 µg/mL (≈ 218 µM)	50 µg/mL (≈ 218 µM)	50 µg/mL (≈ 218 µM)
COc1ccc2c(OC)c3ccoc3nc2c1OC [SKIMMIANINE]	100 µg/mL (≈ 386 µM)	100 µg/mL (≈ 386 µM)	–	–
